# Where a name gives a salt, the structure may show the parent alone. Active and inactive are the calls of the source.
# Assays:
# [1] = target: DNA (cytosine-5)-methyltransferase 1 (Homo sapiens, UniProt P26358); assay: DNMT1 methyltransferase inhibitors, confirmation, biochemical, fluorescent molecular beacon (AID 602386); assay type: functional
# Phospholipase A2 = Phospholipase A2 (Homo sapiens, UniProt P04054); assay type: functional;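 note: confirmatory dose-response counterscreen on phospholipase A2, testing hits that came from an ultra-high-throughput screen for ATG4B inhibitors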
# Cysteine protease ATG4B = target: T1, Cysteine protease ATG4B (Homo sapiens, UniProt Q9Y4P1); assay type: functional;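 note: Fluorescence-based dose-response confirmation assay measuring inhibition of ATG4B activity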
# T1 sequence (Q9Y4P1 whole entry): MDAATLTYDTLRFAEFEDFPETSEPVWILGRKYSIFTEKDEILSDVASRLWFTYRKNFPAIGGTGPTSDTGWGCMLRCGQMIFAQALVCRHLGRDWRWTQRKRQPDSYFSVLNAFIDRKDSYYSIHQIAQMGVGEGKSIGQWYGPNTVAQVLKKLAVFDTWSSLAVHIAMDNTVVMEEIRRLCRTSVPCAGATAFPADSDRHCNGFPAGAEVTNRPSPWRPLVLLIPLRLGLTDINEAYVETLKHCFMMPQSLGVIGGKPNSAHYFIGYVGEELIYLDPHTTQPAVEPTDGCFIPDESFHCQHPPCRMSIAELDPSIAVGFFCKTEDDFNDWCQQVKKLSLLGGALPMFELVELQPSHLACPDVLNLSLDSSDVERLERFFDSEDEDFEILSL
# [2] = target: Voltage-gated inwardly rectifying potassium channel KCNH2 (Homo sapiens, UniProt Q12809); conditions: Potency;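 note: confirmatory quantitative high-throughput screen measuring inhibition of hERG channel activity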
# Vero [3] = assay: cells; assay type: functional; conditions: Chlorocebus sabaeus
# Vero [4] = assay: cells; assay type: functional, cell-based; conditions: Chlorocebus sabaeus
# Cytochrome P450 2D6 = Cytochrome P450 2D6 (Homo sapiens, UniProt P10635);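 note: CYP2D6 member of a cytochrome P450 panel assay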
# Cytochrome P450 3A4 = Cytochrome P450 3A4 (Homo sapiens, UniProt P08684);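 note: CYP3A4 tested as one member of a cytochrome P450 panel screen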
# [5] = target: T2, Probable nicotinate-nucleotide adenylyltransferase (Staphylococcus aureus (strain N315), UniProt P65502); assay type: functional, Staphylococcus aureus subsp. aureus N315;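 for IC50 Mean: confirmatory dose-response retesting of NadD inhibitor hits first found in an ultra-high-throughput screen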
# [6] = target: T2, Probable nicotinate-nucleotide adenylyltransferase; assay type: functional, Staphylococcus aureus subsp. aureus N315; conditions: read-out: IC50_Mean
# [7] = target: Beta-2 adrenergic receptor (Homo sapiens, UniProt P07550); assay: beta2AR agonists driving receptor internalization, dose response, cell-based, FAP fluorogen, flow cytometry, cherry pick 1 (AID 588763); assay type: functional
# [8] = A549 cell cytotoxicity, dose response, cytotoxicity control, plate reader, cherry-pick, antagonist series (AID 743412); assay type: functional, cell-based
# [9] = Fluorescence-based cell-based high throughput dose response assay for inhibitors of the interaction of nucleotide-binding oligomerization domain containing 2 (NOD2) and the receptor-interacting serine-threonine kinase 2 (RIPK2).; assay type: functional; conditions: Homo sapiens
# [10] = target: T3, Replicative DNA helicase DnaB (Mycobacterium tuberculosis, UniProt P9WMR3); assay: DnaB intein splicing inhibitors, dose response, biochemical, cell-free fluorescence (AID 449749); assay type: functional
# T3 sequence (P9WMR3 whole entry): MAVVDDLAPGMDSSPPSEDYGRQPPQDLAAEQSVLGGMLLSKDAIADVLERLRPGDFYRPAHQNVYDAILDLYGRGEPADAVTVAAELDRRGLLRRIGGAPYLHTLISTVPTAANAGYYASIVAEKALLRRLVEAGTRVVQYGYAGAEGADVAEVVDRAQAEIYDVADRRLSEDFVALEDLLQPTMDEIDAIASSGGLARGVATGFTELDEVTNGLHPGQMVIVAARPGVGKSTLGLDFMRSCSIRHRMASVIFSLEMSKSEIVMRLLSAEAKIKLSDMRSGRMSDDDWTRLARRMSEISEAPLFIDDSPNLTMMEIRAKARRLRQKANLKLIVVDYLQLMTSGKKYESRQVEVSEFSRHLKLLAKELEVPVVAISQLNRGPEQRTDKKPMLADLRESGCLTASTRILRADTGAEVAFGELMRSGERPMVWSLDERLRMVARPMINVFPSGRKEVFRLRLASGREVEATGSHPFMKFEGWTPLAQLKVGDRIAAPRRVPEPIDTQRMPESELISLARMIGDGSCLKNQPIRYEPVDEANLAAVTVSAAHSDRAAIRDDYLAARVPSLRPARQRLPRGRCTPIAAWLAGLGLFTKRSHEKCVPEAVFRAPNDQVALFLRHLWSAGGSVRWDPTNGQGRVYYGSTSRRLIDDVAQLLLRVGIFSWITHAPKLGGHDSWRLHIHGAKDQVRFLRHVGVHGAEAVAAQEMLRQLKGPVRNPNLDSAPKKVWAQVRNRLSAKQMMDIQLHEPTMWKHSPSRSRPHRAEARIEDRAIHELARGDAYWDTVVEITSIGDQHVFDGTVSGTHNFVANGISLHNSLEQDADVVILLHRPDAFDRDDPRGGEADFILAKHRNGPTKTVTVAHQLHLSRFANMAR
# [11] = target: T4, Heat shock factor protein 1 (Mus musculus, UniProt P38532); assay: HSF1 potentiators in luciferase reporter cells, confirmation, cell-based, NIH3T3, luminescence, dose retest (AID 435004); assay type: functional;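 note: stress induced by proteasome inhibitor MG132 added 30 min after compound; luciferase reporter driven by HSF1 response element in NIH3T3 cells; actives raise luminescence as potentiators of the MG132 stress response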
# T4 sequence (P38532 whole entry): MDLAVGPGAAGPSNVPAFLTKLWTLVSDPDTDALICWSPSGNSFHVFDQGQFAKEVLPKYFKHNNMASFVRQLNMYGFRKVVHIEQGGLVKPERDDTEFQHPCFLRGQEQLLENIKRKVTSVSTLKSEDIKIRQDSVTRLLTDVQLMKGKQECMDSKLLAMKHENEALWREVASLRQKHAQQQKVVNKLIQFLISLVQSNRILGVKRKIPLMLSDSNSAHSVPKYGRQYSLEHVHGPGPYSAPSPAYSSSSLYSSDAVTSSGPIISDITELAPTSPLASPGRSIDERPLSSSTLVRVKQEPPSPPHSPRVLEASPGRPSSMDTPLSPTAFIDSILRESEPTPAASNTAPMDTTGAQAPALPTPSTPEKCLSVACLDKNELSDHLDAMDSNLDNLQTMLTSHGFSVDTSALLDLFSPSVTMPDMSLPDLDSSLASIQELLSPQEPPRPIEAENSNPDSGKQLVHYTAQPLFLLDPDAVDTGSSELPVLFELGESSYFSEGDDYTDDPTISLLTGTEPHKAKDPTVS
# HEK293 [12] = assay: cells; conditions: Homo sapiens
# [13] = MC4R antagonists, dose response, counter-screen for LGR2 antagonist project, cell-based, plate reader, cherry pick (AID 743444); assay type: functional;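 note: transfected HEK 293 cells stimulated with alpha-MSH peptide; potency of inhibitors of the alpha-MSH evoked signal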
# Protein RecA = target: T5, Protein RecA (Mycobacterium tuberculosis, UniProt P9WHJ3); assay: Fluorescence Cell-Free Homogeneous Dose Retest to Identify Inhibitors of RecA-Intein Splicing Activity. [Related pubchem assays (depositor defined):AID2097, AID2223, AID489010, AID492950]; assay type: functional
# T5 sequence (P9WHJ3 whole entry): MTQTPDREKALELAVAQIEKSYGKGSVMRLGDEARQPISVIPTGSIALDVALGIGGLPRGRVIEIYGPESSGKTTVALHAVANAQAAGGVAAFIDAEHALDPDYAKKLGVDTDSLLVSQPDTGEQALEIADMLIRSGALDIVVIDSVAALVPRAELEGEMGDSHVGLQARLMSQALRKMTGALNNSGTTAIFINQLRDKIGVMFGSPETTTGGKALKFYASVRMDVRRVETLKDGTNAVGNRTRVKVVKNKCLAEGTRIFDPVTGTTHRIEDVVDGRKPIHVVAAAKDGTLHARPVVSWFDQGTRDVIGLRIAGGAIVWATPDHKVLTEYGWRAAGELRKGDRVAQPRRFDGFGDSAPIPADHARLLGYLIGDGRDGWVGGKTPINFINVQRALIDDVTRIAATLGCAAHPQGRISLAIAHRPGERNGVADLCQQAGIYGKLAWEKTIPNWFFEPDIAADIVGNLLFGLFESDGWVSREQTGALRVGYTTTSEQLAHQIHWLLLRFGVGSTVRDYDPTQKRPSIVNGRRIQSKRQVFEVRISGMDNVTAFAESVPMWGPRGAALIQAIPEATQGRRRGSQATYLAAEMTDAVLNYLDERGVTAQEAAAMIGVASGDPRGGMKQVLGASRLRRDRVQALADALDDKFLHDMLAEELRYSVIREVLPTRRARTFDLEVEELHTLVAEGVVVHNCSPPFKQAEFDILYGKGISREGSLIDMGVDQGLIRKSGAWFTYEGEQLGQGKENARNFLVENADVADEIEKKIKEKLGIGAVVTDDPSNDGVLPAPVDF
# [14] = cytotoxicity toward NIH3T3 fibroblasts, dose response, counter-screen, cell-based, ATP luminescence, mouse fibroblasts (AID 2010); assay type: functional;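 note: cells exposed to compound for about 90 hours before reading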
# [15] = LGR2 antagonists, dose response, cell-based, HEK293, CRE-luciferase reporter, cherry pick, set 2 (AID 743343); assay type: functional;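 note: transfected cells were stimulated with diluted bursicon conditioned medium after compound addition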
# [16] = inhibitors of intracellular T. cruzi replication, confirmation, NIH3T3 host cells, beta-gal luminescence (AID 2044); assay type: functional, cell-based;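 note: intracellular parasites grown in NIH/3T3 mouse fibroblasts as host cells; luminescent beta-galactosidase reporter signal from transgenic T. cruzi replicating inside host cells; inhibitors lower the luminescence signal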
# HEK293 [17] = assay: cells; conditions: Homo sapiens; remark: listed apart in the source
# [18] = HepG2 cell cytotoxicity, dose response, cytotoxicity control, plate reader, cherry-pick, antagonist series (AID 743416); assay type: functional, cell-based
# [19] = HEK293 cell cytotoxicity, dose response, cytotoxicity control, plate reader, cherry-picked samples (AID 743446); assay type: functional, cell-based
# [20] = target: T6, Mannose-6-phosphate isomerase (Homo sapiens, UniProt P34949); assay: human PMI inhibitors, high substrate, primary screen, biochemical, fluorescence intensity, high mannose 6-phosphate (AID 1220)
# T6 sequence (P34949 whole entry): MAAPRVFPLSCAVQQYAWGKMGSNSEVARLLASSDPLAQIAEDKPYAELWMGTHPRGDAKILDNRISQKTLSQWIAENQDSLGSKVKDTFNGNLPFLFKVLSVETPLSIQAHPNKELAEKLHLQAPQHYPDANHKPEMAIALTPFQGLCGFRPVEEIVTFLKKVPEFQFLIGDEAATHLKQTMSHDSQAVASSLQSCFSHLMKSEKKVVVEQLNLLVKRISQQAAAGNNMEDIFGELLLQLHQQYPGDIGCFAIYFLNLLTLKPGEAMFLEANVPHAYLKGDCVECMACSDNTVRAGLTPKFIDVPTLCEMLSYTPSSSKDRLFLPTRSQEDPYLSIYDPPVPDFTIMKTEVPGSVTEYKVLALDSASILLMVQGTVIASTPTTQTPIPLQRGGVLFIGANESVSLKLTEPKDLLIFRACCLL
# [21] = target: Glucose-6-phosphate 1-dehydrogenase (Homo sapiens, UniProt P11413); assay: human G6PD enzyme inhibitors, dose response, selectivity assay for P. falciparum G6PD inhibitor project, biochemical, fluorescence (AID 504792); assay type: functional
# HeLa = assay: HeLa cell cytotoxicity, dose response, cytotoxicity control for MITF activator project, CellTiter-Glo luminescence, cherry-pick samples (AID 540259); assay type: functional, cell-based; conditions: Homo sapiens
# Sequence of Phospholipase A2 (P04054 whole entry): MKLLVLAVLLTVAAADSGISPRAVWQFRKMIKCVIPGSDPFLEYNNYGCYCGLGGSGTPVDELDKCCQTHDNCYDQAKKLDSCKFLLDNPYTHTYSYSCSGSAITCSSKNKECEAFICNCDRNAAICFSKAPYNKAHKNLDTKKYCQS
# T2 sequence (P65502 whole entry): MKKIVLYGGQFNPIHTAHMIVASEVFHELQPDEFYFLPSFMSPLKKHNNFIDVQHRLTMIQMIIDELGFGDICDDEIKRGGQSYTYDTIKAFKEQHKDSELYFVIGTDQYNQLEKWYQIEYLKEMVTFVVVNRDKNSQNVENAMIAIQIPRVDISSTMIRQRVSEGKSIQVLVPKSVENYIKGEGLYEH
# Sequence of Glucose-6-phosphate 1-dehydrogenase (P11413 whole entry): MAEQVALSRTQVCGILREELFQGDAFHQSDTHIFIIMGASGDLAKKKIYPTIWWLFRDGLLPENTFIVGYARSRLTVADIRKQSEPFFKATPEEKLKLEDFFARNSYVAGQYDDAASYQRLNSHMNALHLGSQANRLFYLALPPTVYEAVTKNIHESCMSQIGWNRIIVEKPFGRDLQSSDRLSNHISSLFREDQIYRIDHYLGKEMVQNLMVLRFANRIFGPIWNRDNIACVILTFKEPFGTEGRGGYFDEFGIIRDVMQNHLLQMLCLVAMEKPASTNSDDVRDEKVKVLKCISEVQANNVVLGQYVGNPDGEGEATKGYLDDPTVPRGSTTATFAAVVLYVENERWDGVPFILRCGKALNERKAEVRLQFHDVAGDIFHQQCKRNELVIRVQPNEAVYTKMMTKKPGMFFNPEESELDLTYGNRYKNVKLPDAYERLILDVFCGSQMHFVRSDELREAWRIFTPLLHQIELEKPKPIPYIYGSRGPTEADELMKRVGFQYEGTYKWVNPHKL
# Sequence of Voltage-gated inwardly rectifying potassium channel KCNH2 (Q12809 whole entry): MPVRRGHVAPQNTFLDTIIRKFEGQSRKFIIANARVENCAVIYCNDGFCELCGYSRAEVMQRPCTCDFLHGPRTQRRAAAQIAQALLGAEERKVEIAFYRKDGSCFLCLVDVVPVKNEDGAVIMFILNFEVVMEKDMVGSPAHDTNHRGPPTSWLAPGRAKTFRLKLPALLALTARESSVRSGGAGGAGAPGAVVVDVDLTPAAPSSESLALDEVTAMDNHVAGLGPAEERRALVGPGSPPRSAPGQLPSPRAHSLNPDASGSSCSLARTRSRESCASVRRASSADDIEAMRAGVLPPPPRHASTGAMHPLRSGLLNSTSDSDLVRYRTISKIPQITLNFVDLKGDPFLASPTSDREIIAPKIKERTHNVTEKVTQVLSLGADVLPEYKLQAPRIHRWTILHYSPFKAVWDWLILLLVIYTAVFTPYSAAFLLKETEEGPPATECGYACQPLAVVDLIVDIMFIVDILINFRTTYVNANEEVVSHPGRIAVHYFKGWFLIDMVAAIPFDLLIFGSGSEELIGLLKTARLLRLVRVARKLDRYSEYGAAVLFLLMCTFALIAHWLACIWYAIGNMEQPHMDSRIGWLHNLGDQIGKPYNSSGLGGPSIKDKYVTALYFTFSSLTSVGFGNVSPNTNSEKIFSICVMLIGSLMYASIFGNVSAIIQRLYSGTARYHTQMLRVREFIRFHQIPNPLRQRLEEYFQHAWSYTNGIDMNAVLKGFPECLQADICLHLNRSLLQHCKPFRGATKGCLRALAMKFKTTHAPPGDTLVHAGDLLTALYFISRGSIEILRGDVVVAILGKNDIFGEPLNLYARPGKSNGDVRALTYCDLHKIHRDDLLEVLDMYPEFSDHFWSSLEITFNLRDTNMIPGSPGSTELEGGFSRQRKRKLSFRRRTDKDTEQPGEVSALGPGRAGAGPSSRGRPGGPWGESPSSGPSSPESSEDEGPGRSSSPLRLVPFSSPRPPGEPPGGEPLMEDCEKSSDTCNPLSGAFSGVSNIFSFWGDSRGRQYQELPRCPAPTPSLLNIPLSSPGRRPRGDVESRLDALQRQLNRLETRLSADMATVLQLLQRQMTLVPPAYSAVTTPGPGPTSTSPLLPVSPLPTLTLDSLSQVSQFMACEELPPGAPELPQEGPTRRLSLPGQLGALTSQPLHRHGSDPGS
# Sequence of DNA (cytosine-5)-methyltransferase 1 (P26358 whole entry): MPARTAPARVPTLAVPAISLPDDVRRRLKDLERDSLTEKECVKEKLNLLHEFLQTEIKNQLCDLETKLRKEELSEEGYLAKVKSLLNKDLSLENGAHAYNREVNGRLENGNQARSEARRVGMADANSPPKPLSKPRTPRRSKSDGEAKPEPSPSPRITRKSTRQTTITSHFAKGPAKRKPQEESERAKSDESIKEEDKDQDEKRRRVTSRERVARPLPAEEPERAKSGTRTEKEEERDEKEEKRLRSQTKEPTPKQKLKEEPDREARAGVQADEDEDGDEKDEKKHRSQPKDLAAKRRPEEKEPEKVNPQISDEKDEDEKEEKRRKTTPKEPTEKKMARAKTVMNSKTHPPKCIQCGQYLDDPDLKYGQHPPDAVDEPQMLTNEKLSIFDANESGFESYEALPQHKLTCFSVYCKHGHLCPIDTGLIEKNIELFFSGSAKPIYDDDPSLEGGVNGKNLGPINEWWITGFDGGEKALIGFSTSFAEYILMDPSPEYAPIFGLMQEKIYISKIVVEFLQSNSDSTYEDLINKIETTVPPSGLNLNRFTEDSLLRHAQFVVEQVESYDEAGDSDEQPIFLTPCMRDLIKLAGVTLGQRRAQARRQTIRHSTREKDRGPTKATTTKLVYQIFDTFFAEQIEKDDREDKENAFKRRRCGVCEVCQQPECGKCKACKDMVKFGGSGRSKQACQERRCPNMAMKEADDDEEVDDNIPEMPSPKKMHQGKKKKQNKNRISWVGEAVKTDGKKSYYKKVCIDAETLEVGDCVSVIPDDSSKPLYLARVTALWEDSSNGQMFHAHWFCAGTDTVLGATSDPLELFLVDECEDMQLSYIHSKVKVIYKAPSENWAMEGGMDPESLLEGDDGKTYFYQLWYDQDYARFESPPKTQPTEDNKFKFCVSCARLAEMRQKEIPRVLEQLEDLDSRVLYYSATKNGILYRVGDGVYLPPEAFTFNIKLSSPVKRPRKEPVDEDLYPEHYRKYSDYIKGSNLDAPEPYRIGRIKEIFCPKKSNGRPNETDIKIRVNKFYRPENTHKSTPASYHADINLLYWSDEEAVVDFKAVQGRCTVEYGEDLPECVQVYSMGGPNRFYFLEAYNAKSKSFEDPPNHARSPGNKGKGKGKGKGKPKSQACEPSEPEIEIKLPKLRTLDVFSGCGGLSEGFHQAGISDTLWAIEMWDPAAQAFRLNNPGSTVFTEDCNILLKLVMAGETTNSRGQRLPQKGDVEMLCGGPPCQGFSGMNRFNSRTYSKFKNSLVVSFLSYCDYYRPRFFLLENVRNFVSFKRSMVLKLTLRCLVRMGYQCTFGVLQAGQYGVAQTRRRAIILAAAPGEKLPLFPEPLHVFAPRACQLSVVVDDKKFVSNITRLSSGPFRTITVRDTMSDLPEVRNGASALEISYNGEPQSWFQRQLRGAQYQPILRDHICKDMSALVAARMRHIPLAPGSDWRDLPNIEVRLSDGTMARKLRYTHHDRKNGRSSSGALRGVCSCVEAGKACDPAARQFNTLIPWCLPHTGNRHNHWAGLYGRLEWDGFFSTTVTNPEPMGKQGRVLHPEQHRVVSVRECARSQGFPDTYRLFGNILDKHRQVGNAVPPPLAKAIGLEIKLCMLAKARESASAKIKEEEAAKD
# Sequence of Cytochrome P450 3A4 (P08684 whole entry): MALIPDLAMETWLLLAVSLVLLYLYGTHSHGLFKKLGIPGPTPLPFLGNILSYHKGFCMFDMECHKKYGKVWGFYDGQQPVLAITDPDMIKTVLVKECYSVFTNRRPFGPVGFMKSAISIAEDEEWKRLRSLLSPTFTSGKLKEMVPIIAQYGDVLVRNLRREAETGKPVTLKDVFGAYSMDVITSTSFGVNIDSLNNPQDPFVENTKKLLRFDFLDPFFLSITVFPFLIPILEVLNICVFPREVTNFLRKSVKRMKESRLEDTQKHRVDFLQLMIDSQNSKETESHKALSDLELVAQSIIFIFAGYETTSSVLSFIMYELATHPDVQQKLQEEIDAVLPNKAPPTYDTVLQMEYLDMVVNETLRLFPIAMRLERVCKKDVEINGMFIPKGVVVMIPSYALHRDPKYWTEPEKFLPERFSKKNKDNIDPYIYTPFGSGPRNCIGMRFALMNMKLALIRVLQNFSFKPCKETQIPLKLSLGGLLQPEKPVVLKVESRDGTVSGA
# Sequence of Cytochrome P450 2D6 (P10635 whole entry): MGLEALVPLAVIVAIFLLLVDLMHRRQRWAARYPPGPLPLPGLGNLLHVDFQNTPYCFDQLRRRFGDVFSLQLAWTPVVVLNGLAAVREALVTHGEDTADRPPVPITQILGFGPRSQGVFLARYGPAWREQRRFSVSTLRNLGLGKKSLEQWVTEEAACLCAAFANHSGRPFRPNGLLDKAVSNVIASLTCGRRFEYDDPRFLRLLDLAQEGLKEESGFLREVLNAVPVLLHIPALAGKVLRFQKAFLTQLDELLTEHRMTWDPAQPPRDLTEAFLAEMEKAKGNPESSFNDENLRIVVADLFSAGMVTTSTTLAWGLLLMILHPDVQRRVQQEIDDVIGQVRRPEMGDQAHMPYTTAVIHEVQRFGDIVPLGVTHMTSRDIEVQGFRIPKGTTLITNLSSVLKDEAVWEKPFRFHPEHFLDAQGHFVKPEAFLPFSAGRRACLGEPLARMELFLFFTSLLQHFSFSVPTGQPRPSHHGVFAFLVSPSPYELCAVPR
# Sequence of Beta-2 adrenergic receptor (P07550 whole entry): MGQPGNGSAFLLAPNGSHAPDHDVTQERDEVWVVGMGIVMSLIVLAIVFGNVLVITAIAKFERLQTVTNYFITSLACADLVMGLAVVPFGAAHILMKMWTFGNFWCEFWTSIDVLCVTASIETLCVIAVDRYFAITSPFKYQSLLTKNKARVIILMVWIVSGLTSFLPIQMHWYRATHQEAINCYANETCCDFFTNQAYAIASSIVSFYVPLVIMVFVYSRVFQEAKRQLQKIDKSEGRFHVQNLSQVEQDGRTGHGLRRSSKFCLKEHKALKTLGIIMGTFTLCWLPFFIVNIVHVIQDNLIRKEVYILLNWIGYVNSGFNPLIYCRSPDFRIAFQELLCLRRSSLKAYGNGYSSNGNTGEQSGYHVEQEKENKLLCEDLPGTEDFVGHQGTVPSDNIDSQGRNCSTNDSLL
structure (smiles),measurement,setting,value
CC(C)(C)CC(=O)Nc1cccc2c1CCCC2,IC50,[1],> 99 µM (inactive)
O=C(O)c1cc2c(cc1NC(=O)c1ccccc1OC(F)F)OCCCO2,IC50,Phospholipase A2,6.69 µM (active)
same,IC50,Cysteine protease ATG4B,9.56 µM (active)
CCS(=O)(=O)Nc1cccc(C(=C2CCCCC2)c2c[nH]cn2)c1,AC50,[2],14.1 µM (inconclusive)
CC(=NNc1nc2ccccc2s1)c1ccncn1,CC50,Vero [3],5.47 µM (active)
same,IC50,Vero [4],> 25 µM (active)
CCCc1cc(=O)[nH]c(SCc2cc(Cl)ccc2OC(F)F)n1,IC50,Phospholipase A2,9.01 µM (active)
same,AC50,Cytochrome P450 2D6,20 µM (inconclusive)
same,IC50,Cysteine protease ATG4B,9.02 µM (active)
same,AC50,Cytochrome P450 3A4,1.12 µM (inconclusive)
CCCN(CCC)CCc1ccc(O)c(O)c1 [DIPROPYLDOPAMINE HYDROBROMIDE],AC50,[2],15.8 µM (inconclusive)
COc1ccc(C2c3c(ncn(CCCN4CCOCC4)c3=N)Oc3ccc4ccccc4c32)cc1OC (stereo not drawn),CC50,Vero [3],> 25 µM (active)
same,IC50,Vero [4],23.8 µM (active)
OCC1(CCOc2ccccc2)CCN(Cc2nc3cc(F)ccc3[nH]2)CC1,IC50,Vero [4],24.6 µM (active)
O=C1NC(=O)N(CCc2ccccc2)C(=O)/C1=C(O)/C=C/c1ccccc1,CC50,Vero [3],13.3 µM (active)
same,IC50,Vero [4],> 25 µM (active)
NC(CSC(c1ccccc1)(c1ccccc1)c1ccc(-c2ccccc2)cc1)C(=O)O (stereo not drawn),IC50,[5],11.5 µM (active)
same,IC50,[1],9.65 µM (active)
same,IC50,[6],24 µM (active)
CS(=O)(=O)c1ccc(C(=O)OCc2nnc(-c3ccccc3)o2)cc1[N+](=O)[O-],EC50,[7],19 µM (inactive)
same,AC50,[8],6.14 µM (active)
same,IC50,[9],3.01 µM (active)
same,AC50,[10],7.57 µM (active)
same,EC50,[11],8.57 µM (inconclusive)
same,EC50,HEK293 [12],> 59.6 µM (inactive)
same,AC50,[13],20.2 µM (active)
same,EC50,Protein RecA,2.66 µM (active)
same,EC50,[14],6.24 µM (active)
same,AC50,[15],13.4 µM (active)
same,EC50,[16],4.95 µM (active)
same,EC50,HEK293 [17],> 59.6 µM (inactive)
same,AC50,[18],8.73 µM (active)
same,AC50,[19],12.1 µM (active)
COc1ccc(NS(=O)(=O)c2ccc(N3CCCC3)c(NC(=S)Nc3cccc(C)c3C)c2)cc1,IC50,[20],> 50 µM (not active)
same,IC50,[21],> 80 µM (inactive)
CC(=O)OCC1(C)CN(c2ccccc2)NC1=O (stereo not drawn),IC50,[21],46.7 µM (inactive)
CCOC(=O)c1sc(-c2ccccc2)cc1NC(=O)Nc1ccccc1,IC50,Phospholipase A2,9.28 µM (active)
same,IC50,Cysteine protease ATG4B,21.9 µM (inactive)
same,EC50,[14],16.8 µM (active)
same,EC50,[16],3.49 µM (active)
CCn1cnc2c(Nc3cccc(Cl)c3)nc(C#N)nc21,AC50,HeLa,50 µM (active)
O=C(Nc1ccccc1O)c1cc2cc(Br)ccc2oc1=O,AC50,HeLa,221 µM (active)
Cc1nc(N2CCN(S(=O)(=O)c3ccccc3)CC2)c2cc(-c3ccccc3)sc2n1,AC50,HeLa,> 350 µM (inactive)

# — ChEMBL document CHEMBL1201862, “PubChem BioAssay data set” (2004)
